PubChem BioAssay AID977605 (Broad Institute, 2014)
The source made the active and inactive calls.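 Rule for the calls: active = fitted curve reaches 40% activation below the top valid tested dose, in every test run; inconclusive = test runs disagree on the call; inactive = the rest, including effects opposite to the expected direction.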

Assay: endothelial E-selectin upregulation by compounds – imaging, HUVEC, cherry-picked samples, dose response (AID 977605);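 note: signal is the share of imaged cells scored positive for E-selectin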
Settings: HUVEC E-selectin immunostaining, percent of TNF-alpha response over vehicle

SMILES | activation (at 19.5 µM (top of the series)) | further results
COc1ccc(CN(C)C[C@H]2Oc3ccc(NC(=O)Nc4c(C)noc4C)cc3C(=O)N([C@@H](C)CO)C[C@H]2C)cc1 | – | activation (at 21 µM (top of the series)): 0.014% (inactive)
CCCC#Cc1ccc2c(c1)O[C@@H](CN(C)C(=O)c1ccccc1)[C@@H](C)CN([C@H](C)CO)S2(=O)=O | -0.25% (inactive) | –
C[C@@H]1CN([C@@H](C)CO)C(=O)Cc2cc(NC(=O)Cn3cnnn3)ccc2O[C@H]1CN(C)C(=O)Nc1ccc(C(F)(F)F)cc1 | -0.025% (inactive) | –
CC(C)NC(=O)Nc1ccc2c(c1)C(=O)N([C@@H](C)CO)C[C@H](C)[C@@H](CN(C)Cc1ccc(C(F)(F)F)cc1)O2 | -0.03% (inactive) | –
COc1ccc(S(=O)(=O)Nc2ccc3c(c2)C(=O)N([C@H](C)CO)C[C@@H](C)[C@@H](CN(C)C(=O)Nc2cccc4ccccc24)O3)cc1 | 1.7% (inactive) | –
COc1ccc(C(=O)N2CC(c3ccccc3)CC2=O)cc1 (centres undefined) | -0.124% (inactive) | –
COc1ccc(S(=O)(=O)N(C)C[C@@H]2Oc3ccc(NC(=O)Nc4c(C)noc4C)cc3C(=O)N([C@H](C)CO)C[C@@H]2C)cc1 | -0.123% (inactive) | –
Cc1noc(C)c1NC(=O)Nc1ccc2c(c1)CC(=O)N([C@@H](C)CO)C[C@H](C)[C@@H](CN(C)C(=O)Nc1ccc(F)cc1)O2 | -0.02% (inactive) | –
C[C@H]1CN([C@@H](C)CO)C(=O)c2cc(NC(=O)Cn3cnnn3)ccc2O[C@H]1CN(C)S(=O)(=O)c1ccccc1 | -0.003% (inactive) | –
Cc1cc(C)cc(NC(=O)Cc2ccc(NC3=NC4CS(=O)(=O)CC4S3)cc2)c1 (centres undefined) | 0.105% (inactive) | –
Cc1ccc(S(=O)(=O)Nc2cc(S(=O)(=O)N3CCCCC3)ccc2N2CCOCC2)cc1 | 0.047% (inactive) | –
COc1ccc(S(=O)(=O)Nc2ccc3c(c2)CC(=O)N([C@H](C)CO)C[C@H](C)[C@H](CN(C)C(=O)NC2CCCCC2)O3)cc1 | -0.057% (inactive) | –
CCCC#Cc1ccc2c(c1)O[C@@H](CN(C)CCC)[C@@H](C)CN([C@@H](C)CO)S2(=O)=O | -0.152% (inactive) | –
C[C@H](CO)N1C[C@H](C)[C@@H](CN(C)Cc2ccc(-c3ccccc3)cc2)Oc2c(NC(=O)Nc3cccc4ccccc34)cccc2C1=O | 1.82% (inactive) | –
C[C@H](CO)N1C[C@H](C)[C@H](CN(C)Cc2ccncc2)Oc2c(NC(=O)Nc3ccc(F)cc3)cccc2C1=O | -0.19% (inactive) | –
C[C@@H]1CN([C@H](C)CO)C(=O)c2cc(C#Cc3cccc(F)c3)cnc2O[C@H]1CN(C)C(=O)C1CCC1 | 0.008% (inactive) | –
CC(C)NC(=O)Nc1ccc2c(c1)CC(=O)N([C@H](C)CO)C[C@H](C)[C@@H](CN(C)Cc1ccc(Oc3ccccc3)cc1)O2 | -0.055% (inactive) | –

SMILES | activation (at 19.5 µM (top of the series)) | further results
COc1ccc(NC(=O)Nc2cccc3c2O[C@@H](CN(C)C(=O)NC2CCCCC2)[C@H](C)CN([C@H](C)CO)C3=O)cc1 | 0.507% (inactive) | –
Cc1noc(C)c1NC(=O)N(C)C[C@@H]1Oc2ccc(NC(=O)c3ccncc3)cc2C(=O)N([C@H](C)CO)C[C@H]1C | -0.047% (inactive) | –
C[C@H]1CN([C@@H](C)CO)C(=O)c2cc(NS(=O)(=O)c3cccs3)ccc2O[C@H]1CN(C)S(C)(=O)=O | – | activation (at 21 µM (top of the series)): 0.402% (inactive)
COc1cccc(CNC(=O)CN2C(=O)COc3ccc(S(=O)(=O)N4CCCCCC4)cc32)c1 | -0.081% (inactive) | –
C[C@H]1CN([C@@H](C)CO)C(=O)c2cccc(NS(C)(=O)=O)c2O[C@@H]1CN(C)Cc1ccc(Oc2ccccc2)cc1 | 0.027% (inactive) | –
COc1ccc(NC(=O)N(C)C[C@@H]2Oc3ccc(NC(=O)c4ccncc4)cc3CC(=O)N([C@@H](C)CO)C[C@@H]2C)cc1 | – | activation (at 21 µM (top of the series)): -0.09% (inactive)
O=C1CC(N2CCSCC2)C(=O)N1c1cccc(Br)c1 (centres undefined) | -0.085% (inactive) | –
C[C@H]1CN([C@@H](C)CO)C(=O)Cc2cc(NC(=O)Nc3ccc4c(c3)OCO4)ccc2O[C@H]1CN(C)S(=O)(=O)c1cn(C)cn1 | – | activation (at 21 µM (top of the series)): -0.009% (inactive)
Cc1ccc(CNS(=O)(=O)c2ccc(C(F)(F)F)cc2)n1C | -0.139% (inactive) | –
C[C@H](CO)N1C[C@H](C)[C@@H](CN(C)S(=O)(=O)c2cn(C)cn2)Oc2ccc(NC(=O)CCCCCC(=O)Nc3ccccc3N)cc2C1=O | – | activation (at 16 µM (top of the series)): -0.01% (inactive)
C[C@H](CO)N1C[C@H](C)[C@@H](CN(C)Cc2ccc(Oc3ccccc3)cc2)Oc2ccc(NC(=O)Nc3ccc(C(F)(F)F)cc3)cc2C1=O | 0.27% (inactive) | –
COc1ccc(S(=O)(=O)Nc2ccc3c(c2)C(=O)N([C@@H](C)CO)C[C@@H](C)[C@@H](CN(C)C(=O)Nc2cccc4ccccc24)O3)cc1 | -0.103% (inactive) | –
COc1ccc(S(=O)(=O)Nc2ccc3c(c2)C(=O)N([C@@H](C)CO)C[C@H](C)[C@H](CN(C)S(=O)(=O)c2ccc(Cl)cc2)O3)cc1 | – | activation (at 21 µM (top of the series)): 0.145% (inactive)
C[C@@H]1CN([C@H](C)CO)C(=O)Cc2cc(NS(C)(=O)=O)ccc2O[C@@H]1CN(C)S(=O)(=O)c1cn(C)cn1 | 13.4% (inactive) | –
C[C@H](CO)N1C[C@H](C)[C@@H](CN(C)S(C)(=O)=O)Oc2c(NC(=O)C3CCCCC3)cccc2C1=O | – | activation (at 21 µM (top of the series)): 0.25% (inactive)
C[C@H]1CN([C@@H](C)CO)C(=O)Cc2cc(NC(=O)Nc3cccc4ccccc34)ccc2O[C@@H]1CN(C)C(=O)Nc1ccc(C(F)(F)F)cc1 | 14.8% (inactive) | –
COc1ccc(S(=O)(=O)NCC(=O)NCc2cc(=O)n(C)c(=O)n2C)cc1F | 0.047% (inactive) | –
